We go through six compounds from patent US8211903B2, “Substituted pyrimido isoquinoline derivatives” (Mitsubishi Tanabe Pharma Corporation, priority 2008, dated 2012).

As a reminder, the IC50 is the point on the concentration scale where inhibition reaches its midpoint. A lower IC50 goes with greater potency in that assay. Broadly, the melting point is the temperature of the solid-liquid transition.

Structures can show the parent of a compound that is named as a salt.

Chain of GSK3β (P49841 whole entry): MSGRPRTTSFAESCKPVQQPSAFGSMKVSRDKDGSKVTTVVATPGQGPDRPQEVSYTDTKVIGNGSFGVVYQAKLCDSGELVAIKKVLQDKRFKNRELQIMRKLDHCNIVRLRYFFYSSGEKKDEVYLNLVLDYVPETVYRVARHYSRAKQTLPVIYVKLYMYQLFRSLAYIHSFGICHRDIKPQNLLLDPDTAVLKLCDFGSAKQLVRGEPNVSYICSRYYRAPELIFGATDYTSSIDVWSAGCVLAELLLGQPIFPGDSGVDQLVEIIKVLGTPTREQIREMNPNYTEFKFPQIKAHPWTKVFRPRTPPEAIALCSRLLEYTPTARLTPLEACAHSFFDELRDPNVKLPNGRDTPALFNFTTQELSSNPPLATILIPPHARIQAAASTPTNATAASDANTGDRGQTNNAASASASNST

One data set concerns the target GSK3β (Homo sapiens, UniProt P49841). As to the kind of experiment: Inhibitory activity against GSK3β (33P-ATP phosphorylation of prephosphorylated GS1 peptide). The conditions noted are these: protocol 3: 7.5 μM GS1 peptide, 10 μM ATP, 50 mM Hepes pH 7.2, one hour at room temperature. It counts as biochemical. How it is done:
Four different protocols can be used.
In a first protocol: 7.5 μM of prephosphorylated GS1 peptide and 10 μM ATP (containing 300,000 cpm of ^33P-ATP) were incubated in 25 mM Tris-HCl, pH 7.5, 0.6 mM DTT, 6 mM MgCl2, 0.6 mM EGTA, 0.05 mg/ml BSA buffer for 1 hour at room temperature in the presence of GSK3beta (total reaction volume: 100 microliters).
In a second protocol: 4.1 μM of prephosphorylated GS1 peptide and 42 μM ATP (containing 260,000 cpm ^33P-ATP) were incubated in 80 mM Mes-NaOH, pH 6.5, 1 mM Mg acetate, 0.5 mM EGTA, 5 mM 2-mercaptoethanol, 0.02% Tween 20, 10% glycerol buffer for 2 hours at room temperature in the presence of GSK3beta.
In a third protocol: 7.5 μM of prephosphorylated GS1 peptide and 10 μM ATP (containing 300,000 cpm of ^33P-ATP) were incubated in 50 mM Hepes, pH 7.2, 1 mM DTT, 1 mM MgCl2, 1 mM EGTA, 0.01% Tween 20 buffer for one hour at room temperature in the presence of GSK3beta (total reaction volume: 100 microliters). […]
The reaction was stopped with 100 microliters of a solution made of 25 g polyphosphoric acid (85% P2O5), 126 ml 85% H3PO4, H2O to 500 ml and then diluted to 1:100 before use. […] Incorporated ^33P radioactivity was determined by liquid scintillation spectrometry. […]
The compound `O=c1cc(-c2ccncc2)nc2c3ccccc3ccn12` [compound 1, 2-Pyridin-4-yl-pyrimido[2,1-a]isoquinolin-4-one] had an IC50 of 330 nM. The same measure, in the same setting: to `Nc1cccc2c1ccn1c(=O)cc(-c3ccncc3)nc21` [compound 5, 8-Amino-2-pyridin-4-yl-pyrimido[2,1-a]isoquinolin-4-one] belongs 170 nM.

System in the next data set: not given
Test: not given
Conditions: not given
For the compound `O=c1cc(-c2ccncc2)nc2c3cccc([N+](=O)[O-])c3ccn12` (as salt: hydrochloride) [compound 4, 8-Nitro-2-pyridin-4-yl-pyrimido[2,1-a]isoquinolin-4-one], the melting point lay within 270 to 272 °C. Same read-out and setting: the result for `O=c1cc(-c2ccncc2)nc2c3cc(O)ccc3ccn12` (as salt: oxalate) [compound 6, 10-Hydroxy-2-pyridin-4-yl-pyrimido[2,1-a]isoquinolin-4-one] reads 368 to 370 °C; that for `Nc1cccc2c1ccn1c(=O)cc(-c3ccncc3)nc21` [compound 5, 8-Amino-2-pyridin-4-yl-pyrimido[2,1-a]isoquinolin-4-one], 329 to 331 °C; that for `COc1ccc2ccn3c(=O)cc(-c4ccncn4)nc3c2c1` [compound 7, 10-Methoxy-2-pyrimidin-4-yl-pyrimido[2,1-a]isoquinolin-4-one], 302 to 304 °C. Turning to `COc1cc2c(cc1OC)-c1nc(-c3ccncc3)cc(=O)n1CC2` [compound 9, 9,10-Dimethoxy-2-pyridin-4-yl-6,7-dihydro-pyrimido[2,1-a]isoquinolin-4-one], the melting point was 271 to 273 °C.
